Measured values published in patent US8119640B2, “Hedgehog pathway antagonists methods of use” (The Board of Trustees of the Leland Stanford Junior …, priority 2008, dated 2012).
“Also recorded” adds a separate entry of the source.

What was measured:
FLAG-Gli1 = assay: Analysis of Gli1 stability; assay type: cell-based, mouse; details: Shh-LIGHT2 FLAG-Gli1 cells, 24 h
Experimental: Analysis of Gli1 stability. […] The cells were maintained under these conditions for 24 h. The cells were subsequently solubilized in lysis buffer (100 μL/well; 50 mM Tris-HCl, pH 7.4, 1% Triton X-100, 250 mM NaCl, 2 mM EDTA, 20 mM NaF, 2 mM Na3VO4, 2 mM 2-mercaptoethanol, and EDTA-free protease inhibitor cocktail (Roche)). This suspension was transferred to a 1.5-mL centrifuge tube and incubated on ice for 30 min, with vortexing every 5 min. The cell lysates were then centrifuged at 20,000×g at 4° C. for 20 min. Supernatants were removed, and a BCA assay was performed to quantify protein levels. 15 μg […] of protein from each sample was solubilized in 1×SDS-PAGE sample buffer (50 mM Tris-HCl, pH 6.8 containing 10% glycerol, 2% SDS, 50 mM DTT, 200 mM 2-mercaptoethanol, and 0.001% bromophenol blue) and boiled for 5 min. The samples were then resolved on a 4-12% Bis-Tris Criterion XT gel and transferred to a PVDF membrane. The membrane was dehydrated with methanol, and then probed with mouse anti-FLAG M2 antibody (Sigma; 1:1,000 dilution in blocking buffer (PBS containing 3% non-fat dried milk and 0.01% Tween 20)) for 90 min. The blots were washed 4×5 min in PBS containing 0.01% Tween 20 and then probed with horseradish peroxidase-conjugated sheep anti-mouse IgG antibody (GE Healthcare; 1:10,000 dilution in blocking buffer) for 1 h. The membranes were washed again 4×3 min in PBS, and immunoreactive bands were detected with a SuperSignal West Dura kit and a ChemiDoc XRS system. To probe for loading controls, the blots were rinsed with PBS, incubated for 1 min in methanol, washed 3×5 min in PBS, and then re-blocked for 1 h in PBS containing 5% non-fat dried milk and 0.1% Tween 20. […] Protein bands were quantified using Quantity One software (Bio-Rad). FLAG-Gli1 and importin β1 bands were normalized to the average band intensities for each experiment. The ratio of these two values was then used to determine the relative amount of FLAG-Gli1 per condition. Results from three independent experiments were then averaged, and normalized to FLAG-Gli1 levels in DMSO-treated cells.

Smo = Smo (Mus musculus, UniProt P56726); assay: FRET assay for Smo multimerization (Smo-CFP/Smo-YFP); assay type: cell-based, murine; parameters: expressed in transfected cells; host or cells: NIH-3T3; details: 10 μM HPIs; for Shh-induced fold change in Smo-CFP/Smo-YFP FRET: 10 μM cyclopamine, 500 nM SAG
Chain of Smo (P56726 33-793): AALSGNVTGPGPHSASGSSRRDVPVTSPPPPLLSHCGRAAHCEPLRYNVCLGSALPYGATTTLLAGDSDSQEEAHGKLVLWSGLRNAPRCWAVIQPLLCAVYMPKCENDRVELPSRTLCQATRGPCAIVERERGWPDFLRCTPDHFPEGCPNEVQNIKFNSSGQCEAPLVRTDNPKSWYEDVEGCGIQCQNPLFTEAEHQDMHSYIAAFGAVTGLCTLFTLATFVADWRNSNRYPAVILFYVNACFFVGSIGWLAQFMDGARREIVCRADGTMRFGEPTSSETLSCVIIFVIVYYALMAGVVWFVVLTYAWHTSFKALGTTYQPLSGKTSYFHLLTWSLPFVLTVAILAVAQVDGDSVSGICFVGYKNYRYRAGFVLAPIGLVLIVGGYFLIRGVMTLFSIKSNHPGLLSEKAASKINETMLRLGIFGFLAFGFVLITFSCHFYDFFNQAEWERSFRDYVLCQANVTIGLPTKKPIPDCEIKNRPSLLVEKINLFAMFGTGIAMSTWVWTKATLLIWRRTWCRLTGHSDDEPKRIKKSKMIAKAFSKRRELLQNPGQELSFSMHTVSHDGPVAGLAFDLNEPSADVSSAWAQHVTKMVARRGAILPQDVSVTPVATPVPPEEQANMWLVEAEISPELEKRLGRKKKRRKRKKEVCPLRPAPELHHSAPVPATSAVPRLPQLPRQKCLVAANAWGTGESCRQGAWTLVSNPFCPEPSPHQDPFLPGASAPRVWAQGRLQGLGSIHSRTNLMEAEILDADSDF
Chain of Smo (P56726 33-793): as above
Experimental: FRET assay for Smo multimerization. […] The cells were washed with PBS buffer, fixed with 4% paraformaldehyde for 20 min, and mounted on slides in 80% glycerol. Fluorescence signals were acquired with the 100× objective of a Zeiss LSM510 confocal microscope with the following conditions: CFP was excited by 458-nm light and the emission was collected through a BP 480-520-nm filter. YFP was excited by 514-nm light and the emission was collected through a BP 535-590-nm filter. The CFP signal was obtained before and after photobleaching YFP(CFPBP and CFPAP, respectively) using the full power of the 514-nm laser line for 1-2 min at the top half of each cell, leaving the bottom half unbleached as an internal control. The CFP fluorescence intensity was analyzed using Metamorph software (Universal Imaging Corp.), and the energy transfer efficiency was calculated using the formula: FRET %=((CFPAP−CFPBP)/CFPAP)×100. Photobleached areas in 11-19 cells were analyzed for each experimental condition.

Gli2 = target: T1, Gli2 (Mus musculus, UniProt Q0VGT2); assay: Hh pathway activation mediated by overexpression of Gli2; assay type: cell-based; details: for Inhibition of Hh pathway activity induced by Gli2 overexpression: NIH-3T3 cells, Gli-dependent firefly luciferase; for IC50: NIH-3T3 cells overexpressing Gli2, read-out: IC50 (uM) Gli2 Transfected
T1 construct: expressed in transfected cells; host or cells: NIH-3T3
T1 sequence (Q0VGT2 whole entry): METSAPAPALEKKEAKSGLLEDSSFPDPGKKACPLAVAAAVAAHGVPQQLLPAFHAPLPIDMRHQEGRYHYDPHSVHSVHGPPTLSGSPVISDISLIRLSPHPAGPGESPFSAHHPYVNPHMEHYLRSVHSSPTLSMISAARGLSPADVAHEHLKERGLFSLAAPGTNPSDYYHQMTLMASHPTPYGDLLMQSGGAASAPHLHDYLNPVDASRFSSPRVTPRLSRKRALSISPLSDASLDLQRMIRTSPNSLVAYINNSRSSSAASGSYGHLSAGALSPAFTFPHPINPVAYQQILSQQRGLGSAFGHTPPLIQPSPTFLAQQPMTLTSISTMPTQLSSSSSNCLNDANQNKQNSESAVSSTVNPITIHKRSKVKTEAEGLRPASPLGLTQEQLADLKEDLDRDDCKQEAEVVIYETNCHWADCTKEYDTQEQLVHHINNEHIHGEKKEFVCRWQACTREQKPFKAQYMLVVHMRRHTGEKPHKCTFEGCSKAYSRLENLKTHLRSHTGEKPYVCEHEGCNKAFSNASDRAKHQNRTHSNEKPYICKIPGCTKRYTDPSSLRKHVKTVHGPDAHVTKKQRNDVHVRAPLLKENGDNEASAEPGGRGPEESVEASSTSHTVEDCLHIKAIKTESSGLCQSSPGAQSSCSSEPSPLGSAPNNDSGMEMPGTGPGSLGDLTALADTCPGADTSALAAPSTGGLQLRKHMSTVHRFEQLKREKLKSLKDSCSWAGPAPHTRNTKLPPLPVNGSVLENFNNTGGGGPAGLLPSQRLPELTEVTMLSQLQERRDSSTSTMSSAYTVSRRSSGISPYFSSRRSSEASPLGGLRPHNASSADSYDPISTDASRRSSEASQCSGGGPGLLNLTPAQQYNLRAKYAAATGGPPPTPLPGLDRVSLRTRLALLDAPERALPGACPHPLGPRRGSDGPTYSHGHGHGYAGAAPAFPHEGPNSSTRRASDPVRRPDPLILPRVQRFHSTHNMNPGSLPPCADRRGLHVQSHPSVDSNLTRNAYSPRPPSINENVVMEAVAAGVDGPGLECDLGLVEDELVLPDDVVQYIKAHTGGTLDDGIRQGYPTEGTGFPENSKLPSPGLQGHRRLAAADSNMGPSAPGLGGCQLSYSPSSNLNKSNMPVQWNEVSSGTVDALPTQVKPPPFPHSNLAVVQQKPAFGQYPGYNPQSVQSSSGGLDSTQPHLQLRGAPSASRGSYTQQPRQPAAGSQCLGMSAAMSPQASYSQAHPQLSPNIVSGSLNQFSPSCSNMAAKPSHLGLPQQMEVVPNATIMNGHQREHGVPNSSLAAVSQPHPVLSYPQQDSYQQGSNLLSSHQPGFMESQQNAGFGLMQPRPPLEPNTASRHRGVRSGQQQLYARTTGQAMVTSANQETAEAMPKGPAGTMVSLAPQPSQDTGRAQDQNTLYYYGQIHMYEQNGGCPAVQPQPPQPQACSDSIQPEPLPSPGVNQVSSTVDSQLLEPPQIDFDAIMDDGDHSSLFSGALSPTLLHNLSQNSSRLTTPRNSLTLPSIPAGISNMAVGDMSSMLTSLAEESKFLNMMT
Experimental: Hh pathway activation mediated by the overexpression of Gli, Gli2, Gli2αPKA, or Gli2αGSK. […] The cells were co-transfected the following day with 220 ng/well pcDNA-derived Gli1, Gli2, or Gli2 phosphosite mutant expression vectors and 80 ng/well of a 1:15 mixture of phRLTK (Promega) and 8XGIiBS-FL. After transfection, cells were grown to confluence (approximately 48 h). The cell were then incubated for an additional 28-32 h in DMEM containing 0.5% CS, 100 U/mL penicillin, 0.1 mg/mL streptomycin, and either DMSO, 50 μM forskolin, 50 μM LY294002, or various concentrations of the HPIs. Firefly and Renilla luciferase activities were measured using a dual luciferase kit and a Veritas microplate luminometer.

| Compound | IC50 (Gli2) [µM] | other results |
| --- | --- | --- |
| COCCOC(=O)C1=C(C)NC2=C(C(=O)CC(c3ccccc3OC)C2)C1c1cccc(O)c1 (mixture of isomers) [Compound 8, 4-(3-Hydroxy-phenyl)-7-(2-methoxy-phenyl)-2-methyl-5-oxo-1,4,5,6,7,8-hexahydro-quinoline-3-carboxylic acid 2-methoxy-ethyl ester] |  | FLAG-Gli1 stability/levels (immunoblotting) (FLAG-Gli1): increased; Shh-induced fold change in Smo-CFP/Smo-YFP FRET (Smo): attenuated the fold-change in Smo-CFP/Smo-YFP FRET upon Shh stimulation; Inhibition of Hh pathway activity induced by Gli2 overexpression (Gli2; listed as HPI-1): inhibit Gli-induced firefly luciferase expression in a dose-dependent manner; also recorded: inhibits |
| N#Cc1cc2c(nc1SCC(=O)Nc1nc3ccccc3s1)CCC2 [Compound 1] | 3 |  |
| CCCCNC(=N)C(C)c1ccc(CC(C)C)cc1 (stereo not shown) [Compound 2] | > 30 |  |
| Cc1cc(/C=c2\sc3nc4ccccc4n3c2=O)c(C)n1C(C)C [Compound 3] | 2 |  |
| O=C(Nc1cccc2ccccc12)OC[C@@H]1CCCN2CCCC[C@H]12 [Compound 4] | > 30 |  |
| CCC(C)NS(=O)(=O)c1ccc(Cc2ccc(S(=O)(=O)NC(C)CC)cc2)cc1 (stereo not shown) [Compound 5] | 10 |  |
| CCOC(=O)c1cc2c(=O)n3ccccc3nc2n(C(C)C)c1=NC(=O)c1cc(OC)cc(OC)c1 [Compound 6] | 1.5 |  |
| CCN1CCCC1CNC(=O)C1CCN(c2nc3c(C)cc(C)cc3s2)CC1 (stereo not shown) [Compound 7] | > 10 | Toxicity noted in Gli2 Transfected column (Gli2): (Toxic at 30) |
| CCOC(=O)c1cn(-c2ccccc2)nc1-c1ccc(OC)c(OC)c1 [Compound 9] | > 30 |  |
| O=S(=O)(Nc1cc(Cl)c(Cl)cc1Cl)c1ccc(F)cc1 [Compound 10] | 4 |  |
| OCCNc1nc(N2CCN(c3ccccc3)CC2)nc2ccccc12 [Compound 11] | > 30 | FLAG-Gli1 stability/levels (immunoblotting) (FLAG-Gli1): neither HPI-2 or HPI-3 had any significant effect on FLAG-Gli1 levels; Basal Smo-CFP/Smo-YFP FRET levels (Smo): decreased basal FRET levels; Inhibition of Hh pathway activity induced by Gli2 overexpression (Gli2; listed as HPI-3): no significant activity; also recorded: inactive |
| CC(C)(C)N(CCNS(=O)(=O)c1ccc(-c2cc(C(F)(F)F)no2)s1)Cc1ccco1 [Compound 12] | 15 |  |
| CN1CCN(C2Cc3ccccc3Sc3ccccc32)CC1 (stereo not shown) [Compound 13] | > 30 |  |
| CCOc1ccc2ncc(C(=O)c3ccc(C)cc3)c(N3CCCC3)c2c1 [Compound 14] | 10 |  |
| O=C(Nc1nnc(S(=O)(=O)N2CCCCC2)s1)c1cccc(Br)c1 [Compound 15] | 25 |  |
| CCOc1ccc(CCNc2cnnc3c(Cl)cccc23)cc1OCC [Compound 16] | > 30 |  |
| COc1ccc(OC)c2c1cc1n2CC(C)(C(=O)NC2CCCCCCC2)N(CCN(C)C)C1=O (stereo not shown) [Compound 17] | 6 | FLAG-Gli1 stability/levels (immunoblotting) (FLAG-Gli1): neither HPI-2 or HPI-3 had any significant effect on FLAG-Gli1 levels; Basal Smo-CFP/Smo-YFP FRET levels (Smo): decreased basal FRET levels; Shh-induced fold change in Smo-CFP/Smo-YFP FRET (Smo): attenuated the fold-change in Smo-CFP/Smo-YFP FRET upon Shh stimulation; Inhibition of Hh pathway activity induced by Gli2 overexpression (Gli2; listed as HPI-2): preferentially inhibits Gli2 |
| N#CC(C(=O)c1ccc(Cl)cc1Cl)=C1NC(=O)c2ccccc2N1 [Compound 18] | > 10 | FLAG-Gli1 stability/levels (immunoblotting) (FLAG-Gli1): decreased; Basal Smo-CFP/Smo-YFP FRET levels (Smo): decreased basal FRET levels; Inhibition of Hh pathway activity induced by Gli2 overexpression (Gli2; listed as HPI-4): no significant activity; also recorded: inactive |
